Source: patent publication US20220324835A1 (Nurix Therapeutics, Inc., priority 2018, published 2022)

Tests used:
Type in all cases: cell-based, human
T-cell [1] = assay: CD25 cell surface staining on T-cells co-stimulated with anti-CD3 and anti-CD28 antibody (Biological Example 2); details: Homo sapiens, T-cell, fold change over baseline, primary human total T-cells, read-out: CD25 staining Anti-CD3/Anti-CD28 stimulation; for fold induction at 0.3 µM: 0.3 μM Cbl-b inhibitor; for fold induction at 1 µM: 1 μM Cbl-b inhibitor; for fold induction at 4 µM: 4 μM Cbl-b inhibitor
Outline: (§1)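 T-cells were stimulated with anti-CD3 antibody alone or with anti-CD28 antibody, in the presence or absence of Cbl-b inhibitor. IL-2 secretion or CD25 surface staining was measured, and values expressed as fold over the uninhibited baseline […].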

T-cell [2] = assay: IL-2 secretion from T-cells co-stimulated with anti-CD3 and anti-CD28 antibody (Biological Example 2); details: Homo sapiens, T-cell, fold change over baseline, primary human total T-cells, read-out: IL-2 secretion Anti-CD3/Anti-CD28 stimulation; for fold induction at 0.3 µM: 0.3 μM Cbl-b inhibitor; for fold induction at 1 µM: 1 μM Cbl-b inhibitor; for fold induction at 4 µM: 4 μM Cbl-b inhibitor
Outline: as §1

T-cell [3] = assay: CD25 cell surface staining on T-cells stimulated with anti-CD3 antibody alone (Biological Example 2); details: T-cell, fold change over baseline, primary human total T-cells, read-out: CD25 staining Anti-CD3 stimulation; for fold induction at 1 µM: 1 μM Cbl-b inhibitor; for fold induction at 8 µM: 8 μM Cbl-b inhibitor

Row | Structure (SMILES) | fold induction at 0.3 µM (T-cell [1]) | fold induction at 1 µM (T-cell [1]) | fold induction at 4 µM (T-cell [1]) | fold induction at 0.3 µM (T-cell [2]) | fold induction at 1 µM (T-cell [2]) | fold induction at 4 µM (T-cell [2]) | fold induction at 1 µM (T-cell [3]) | fold induction at 8 µM (T-cell [3])
1 | C[C@H](Cc1nncn1C)c1cccc(NC(=O)c2ccnc(C(F)(F)F)n2)c1 [Compound 187, (R)-N-(3-(1-(4-methyl-4H-1,2,4-triazol-3-yl)propan-2-yl)phenyl)-2-(trifluoromethyl)pyrimidine-4-carboxamide] | 1.51 to 1.75 | > 1.76 | > 1.76 | 1.01 to 2.5 | 2.51 to 5 | > 7.5 | 0.801 to 1 | > 1
2 | C[C@H](Cc1nncn1C)c1cccc(NC(=O)c2cccc(C(F)(F)CO)n2)c1 [Compound 188, (R)-6-(1,1-difluoro-2-hydroxyethyl)-N-(3-(1-(4-methyl-4H-1,2,4-triazol-3-yl)propan-2-yl)phenyl)picolinamide] | 1.01 to 1.3 | 1.31 to 1.5 | > 1.76 | < 1 | < 1 | < 1 | < 0.6 | < 0.6
3 | C[C@H](Cc1nncn1C)c1cccc(NC(=O)c2cncc(C(F)(F)F)n2)c1 [Compound 189, (R)-N-(3-(1-(4-methyl-4H-1,2,4-triazol-3-yl)propan-2-yl)phenyl)-6-(trifluoromethyl)pyrazine-2-carboxamide] | > 1.76 | > 1.76 | > 1.76 | 1.01 to 2.5 | 2.51 to 5 | 5 to 7.5 | 0.601 to 0.8 | > 1
4 | C[C@H](Cc1nncn1C)c1cccc(NC(=O)c2cc(C3(O)COC3)cc(C(F)(F)F)n2)c1 [Compound 190, (R)-4-(3-hydroxyoxetan-3-yl)-N-(3-(1-(4-methyl-4H-1,2,4-triazol-3-yl)propan-2-yl)phenyl)-6-(trifluoromethyl)picolinamide] | > 1.76 | > 1.76 | > 1.76 | < 1 | 1.01 to 2.5 | 5 to 7.5 | 0.601 to 0.8 | > 1
5 | C[C@H](Cc1nncn1C)c1cccc(NC(=O)c2cc(S(C)(=O)=O)cc(C3CC3)n2)c1 [Compound 198, 6-cyclopropyl-N-[3-[(1R)-1-methyl-2-(4-methyl-1,2,4-triazol-3-yl)ethyl]phenyl]-4-methylsulfonyl-pyridine-2-carboxamide] | 1.01 to 1.3 | 1.01 to 1.3 | < 1 | 1.01 to 2.5 | 1.01 to 2.5 | 1.01 to 2.5 | 0.801 to 1 | > 1
6 | C[C@H](Cc1nncn1C)c1cccc(NC(=O)c2cc(S(N)(=O)=O)cc(C(F)(F)F)n2)c1 [Compound 200, (R)-N-(3-(1-(4-methyl-4H-1,2,4-triazol-3-yl)propan-2-yl)phenyl)-4-sulfamoyl-6-(trifluoromethyl)picolinamide] | 1.01 to 1.3 | 1.01 to 1.3 | 1.01 to 1.3 | < 1 | < 1 | 1.01 to 2.5 | 0.801 to 1 | > 1
7 | CNS(=O)(=O)c1cc(C(=O)Nc2cccc([C@H](C)Cc3nncn3C)c2)nc(C(F)(F)F)c1 [Compound 201, (R)-N-(3-(1-(4-methyl-4H-1,2,4-triazol-3-yl)propan-2-yl)phenyl)-4-(N-methylsulfamoyl)-6-(trifluoromethyl)picolinamide] | 1.01 to 1.3 | 1.01 to 1.3 | 1.01 to 1.3 | 1.01 to 2.5 | 1.01 to 2.5 | < 1 | 0.801 to 1 | > 1
8 | C[C@H](Cc1nncn1C)c1cccc(NC(=O)c2cc(O[C@H]3CC[C@@H](O)C3)ccn2)c1 [Compound 206, 4-((1S,3R)-3-hydroxycyclopentyloxy)-N-(3-((R)-1-(4-methyl-4H-1,2,4-triazol-3-yl)propan-2-yl)phenyl)picolinamide] | 1.01 to 1.3 | 1.01 to 1.3 | 1.01 to 1.3 | 1.01 to 2.5 | 1.01 to 2.5 | 2.51 to 5 | 0.801 to 1 | 0.801 to 1
9 | Cc1ccc(C(=O)Nc2cccc([C@H](C)Cc3nnc[nH]3)c2)nc1C1CC1 [Compound 212, (R)-N-(3-(1-(4H-1,2,4-triazol-3-yl)propan-2-yl)phenyl)-6-cyclopropyl-5-methylpicolinamide] | 1.51 to 1.75 | 1.51 to 1.75 | > 1.76 | 1.01 to 2.5 | 1.01 to 2.5 | 1.01 to 2.5 | < 0.6 | < 0.6
10 | Cc1conc1C[C@@H](C)c1cccc(NC(=O)c2ccnc(C(F)(F)F)n2)c1 [Compound 213a, (R)-N-(3-(1-(4-methylisoxazol-3-yl)propan-2-yl)phenyl)-2-(trifluoromethyl)pyrimidine-4-carboxamide] | 1.01 to 1.3 | 1.01 to 1.3 | 1.01 to 1.3 | 1.01 to 2.5 | 1.01 to 2.5 | 2.51 to 5 | 0.801 to 1 | > 1
11 | C[C@H](Cc1nncn1C)c1cccc(NC(=O)c2cc(C(=O)N3CC[C@](C)(O)C3)ccn2)c1 [Compound 222, 4-((S)-3-hydroxy-3-methylpyrrolidine-1-carbonyl)-N-(3-((R)-1-(4-methyl-4H-1,2,4-triazol-3-yl)propan-2-yl)phenyl)picolinamide] | 1.51 to 1.75 | 1.31 to 1.5 | 1.51 to 1.75 | < 1 | < 1 | < 1 | < 0.6 | < 0.6
12 | C[C@H](Cc1nncn1C)c1cccc(NC(=O)c2cc(C(=O)N3C[C@@H](O)C[C@H]3C)ccn2)c1 [Compound 224, 4-((2R,4S)-4-hydroxy-2-methylpyrrolidine-1-carbonyl)-N-(3-((R)-1-(4-methyl-4H-1,2,4-triazol-3-yl)propan-2-yl)phenyl)picolinamide] | 1.01 to 1.3 | 1.01 to 1.3 | 1.51 to 1.75 | < 1 | < 1 | < 1 | < 0.6 | < 0.6
13 | C[C@H](Cc1nncn1C)c1cccc(NC(=O)c2cc(C(=O)N3C[C@@H](O)[C@H](F)C3)ccn2)c1 [Compound 240, 4-((3R,4R)-3-fluoro-4-hydroxypyrrolidine-1-carbonyl)-N-(3-((K)-1-(4-methyl-4H-1,2,4-triazol-3-yl)propan-2-yl)phenyl)picolinamide] | < 1 | 1.01 to 1.3 | 1.31 to 1.5 | < 1 | 1.01 to 2.5 | 2.51 to 5 | 0.601 to 0.8 | 0.801 to 1
14 | C[C@H](Cc1nncn1C)c1cccc(NC(=O)c2cc(C(=O)N3CC(O)C(F)(F)C3)ccn2)c1 (stereo partly drawn) [Compound 243, 4-(3,3-difluoro-4-hydroxypyrrolidine-1-carbonyl)-N-[3-[(2R)-1-(4-methyl-4H-1,2,4-triazol-3-yl)propan-2-yl]phenyl]pyridine-2-carboxamide] | < 1 | < 1 | 1.31 to 1.5 | < 1 | < 1 | 2.51 to 5 | 0.601 to 0.8 | 0.801 to 1
15 | CCn1cnnc1C[C@@H](C)c1cccc(NC(=O)c2cc(C(=O)N3C[C@@H](O)C[C@H]3C)ccn2)c1 [Compound 251, N-(3-((R)-1-(4-ethyl-4H-1,2,4-triazol-3-yl)propan-2-yl)phenyl)-4-((2R,4S)-4-hydroxy-2-methylpyrrolidine-1-carbonyl)picolinamide] | 1.01 to 1.3 | 1.01 to 1.3 | 1.01 to 1.3 | < 1 | < 1 | 1.01 to 2.5 | 0.601 to 0.8 | 0.601 to 0.8
16 | C[C@H](Cc1nncn1C)c1cccc(N2Cc3c(Br)cccc3C2=O)c1 [Compound 256, (R)-4-bromo-2-(3-(1-(4-methyl-4H-1,2,4-triazol-3-yl)propan-2-yl)phenyl)isoindolin-1-one] | 1.01 to 1.3 | 1.31 to 1.5 | 1.51 to 1.75 | 2.51 to 5 | 5 to 7.5 | > 7.5 | 0.801 to 1 | 0.801 to 1
